The test addresses T1, Human GPR120 (Homo sapiens, UniProt Q5NUL3).
T1 construct: Ga16 (promiscuous G protein) fusion partner; expressed in transfected cells
T1 sequence (Q5NUL3 with tags, fused parts or gaps): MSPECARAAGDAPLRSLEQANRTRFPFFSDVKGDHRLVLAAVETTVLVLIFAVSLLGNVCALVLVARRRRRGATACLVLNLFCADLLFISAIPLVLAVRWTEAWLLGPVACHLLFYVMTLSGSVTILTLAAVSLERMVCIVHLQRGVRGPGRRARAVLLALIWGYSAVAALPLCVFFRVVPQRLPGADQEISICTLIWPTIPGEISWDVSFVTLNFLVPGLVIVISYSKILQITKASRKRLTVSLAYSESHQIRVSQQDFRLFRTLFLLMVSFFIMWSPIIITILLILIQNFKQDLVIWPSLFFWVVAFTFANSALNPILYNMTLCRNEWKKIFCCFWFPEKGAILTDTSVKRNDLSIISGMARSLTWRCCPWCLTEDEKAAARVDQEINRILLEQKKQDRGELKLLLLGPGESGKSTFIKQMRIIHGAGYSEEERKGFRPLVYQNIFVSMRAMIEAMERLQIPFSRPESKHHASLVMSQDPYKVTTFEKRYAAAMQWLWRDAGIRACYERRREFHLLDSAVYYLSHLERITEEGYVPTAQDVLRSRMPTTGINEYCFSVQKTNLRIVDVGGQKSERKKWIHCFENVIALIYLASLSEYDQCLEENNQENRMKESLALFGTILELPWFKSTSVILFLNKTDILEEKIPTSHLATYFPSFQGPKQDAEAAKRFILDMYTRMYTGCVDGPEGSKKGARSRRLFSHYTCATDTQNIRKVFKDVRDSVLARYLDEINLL
Nature of the test: FLIPR assay: agonist-induced calcium mobilization in HEK293-GPR120-Ga16 cells. Type of test: cell-based. The settings on record: for EC50: GPR120 activation, calcium mobilization, HEK293-GPR120-Ga16 cells; for Emax: % enhancement of the test compound relative to a known compound, read-out: % Efficiency. As for the experimental part: Human GPR120 stable cell-line was generated in HEK293 cells. GPR120 (Accession number BC101175) is fused to a promiscuous G protein, Ga16. The expression plasmid is transfected into HEK293 cells using Fugene6 following manufacturer's instruction. Stable cell-lines are generated following drug selection.
FLIPR (Fluorimetric Imaging Plate Reader, Molecular Devices) assays are performed to measure agonist-induced calcium mobilization in the GPR120-expressing cells. One day before the FLIPR assay, HEK293-GPR120-Ga16 cells are seeded into poly-D-lysine coated black-wall-clear bottom 384 well plates (Falcon) at 25,000 cells per well in 40 μl DMEM supplemented with 1% of FBS. The cells are incubated overnight at 37° C. in a humidified incubator. The medium is aspirated on the day of the FLIPR assay. The cells are incubated with 50 μl/well of the assay buffer (HBSS, 20 mM HEPES, 2.5 mM probenecid, pH7.4) containing Fluo-4 NM dye (Invitrogen cat# F36205) at 37° C. for 45 minutes, and then equilibrated at room temperature for 30 minutes. Compounds are dissolved in DMSO and diluted to desired concentrations with assay buffer. Fluorescent output is measured immediately following compound addition (12.5 μl/well) on the FLIPR machine.
An EC50 value was calculated using the change of fluorescent intensity from the reaction initiation. […] In some examples, compounds provided herein have EC50 values from 0.1 μM to 5 μM, while in other examples from 0.5 μM to 5 μM.
The EC50 value in those experiments is given as that concentration of the test compound in question that provoke a response halfway between the baseline and maximum responses. In certain examples compounds of Formula (I) have EC50 values from 0.001 μM to 5 μM. In other examples, compounds of Formula (I) have EC50 values from 0.001 μM to 4 μM. In other examples, compounds of Formula (I) have EC50 values from 0.001 μM to 3 μM. In other examples, compounds of Formula (I) have EC50 values from 0.001 μM to 2 μM. In other examples, compounds of Formula (I) have EC50 values from 0.001 μM to 1 μM. In other examples, compounds of Formula (I) have EC50 values from 0.001 μM to 0.5 μM. […] In other examples, compounds of Formula (I) have EC50 values from 0.001 μM to 0.1 μM.
The % efficiency in those experiments is given as that % enhancement of the test compound in question relative to a known compound. In certain examples compounds of Formula (I) have a % efficiency values from 50% to 150%. In other examples, compounds of Formula (I) have a % efficiency values from 55% to 150%. In other examples, compounds of Formula (I) have a % efficiency values from 60% to 150%. In other examples, compounds of Formula (I) have a % efficiency values from 65% to 150%. In other examples, compounds of Formula (I) have a % efficiency values from 70% to 150%. In other examples, compounds of Formula (I) have a % efficiency values from 75% to 150%. In other examples, compounds of Formula (I) have a % efficiency values from 80% to 150%. In other examples, compounds of Formula (I) have a % efficiency values from 85% to 150%. In other examples, compounds of Formula (I) have a % efficiency values from 90% to 150%. In other examples, compounds of Formula (I) have a % efficiency values from 95% to 150%. In other examples, compounds of Formula (I) have a % efficiency values from 100% to 150%.
(Calcium flux is commonly read through the fluorescence of an indicator in the cells.)

Read-outs that look alike come from different tables or passages of the source.

By EC50 is commonly meant the concentration that produces a half-maximal response. In the case of `CCn1c(-c2cccc(Br)c2)cs/c1=N\c1ccc(S(=O)(=O)O)cc1` [Compound 5, (Z)-4-(4-(3-bromophenyl)-3-ethylthiazol-2(3H)-ylideneamino)benzenesulfonic acid], the EC50 (read-out: EC50 Range) was in the range of 100 to 250 nM.
Regarding `COc1ccc(-c2noc(-c3ccc(C(=O)O)cc3)n2)cc1` [Compound 52, 4-(3-(4-methoxyphenyl)-1,2,4-oxadiazol-5-yl)benzoic acid], the EC50 (read-out: EC50 Range) was 1000 to 5000 nM.
The same measure, in the same setting: the result for `CCn1c(-c2cccc(Cl)c2Cl)cs/c1=N\c1ccc(C(=O)O)cc1` [Compound 39, (Z)-4-(4-(2,3-dichlorophenyl)-3-ethylthiazol-2(3H)-ylideneamino)benzoic acid] reads 100 to 250 nM.
Same read-out and setting: the result for `CCn1c(-c2ccccc2OC)cs/c1=N\c1ccc(S(=O)(=O)O)cc1` [Compound 28, (Z)-4-(3-ethyl-4-(2-methoxyphenyl)thiazol-2(3H)-ylideneamino)benzenesulfonic acid] reads 100 to 250 nM.
Take `CCn1c(-c2ccccc2[N+](=O)[O-])cs/c1=N\c1ccc(C(=O)O)cc1` [Compound 44, (Z)-4-(3-ethyl-4-(2-nitrophenyl)thiazol-2(3H)-ylideneamino)benzoic acid]: the Emax was 75.2%. Further, the concentration for a half-maximal effect (EC50) (read-out: EC50) was found to be 604 nM. Moreover, the concentration giving a half-maximal response (EC50) (read-out: EC50 Range) was 500 to 1000 nM.
`CCn1c(-c2ccccc2Br)cs/c1=N\c1ccc(C(=O)O)cc1` [Compound 42, (Z)-4-(4-(2-bromophenyl)-3-ethylthiazol-2(3H)-ylideneamino)benzoic acid]: under “read-out: EC50 Range”, the EC50 lay in the range of 1 to 100 nM.
Regarding `CCn1c(-c2cc(Cl)ccc2Cl)cs/c1=N\c1ccc(S(=O)(=O)O)cc1` [Compound 7, (Z)-4-(4-(2,5-dichlorophenyl)-3-ethylthiazol-2(3H)-ylideneamino)benzenesulfonic acid], the Emax came to 124%. Also, for the setting “read-out: EC50”, the EC50 amounted to 109 nM. Besides, the EC50 (read-out: EC50 Range) lay in the range of 100 to 250 nM.
With `CCn1c(-c2cccc(OC)c2)cs/c1=N\c1ccc(S(=O)(=O)O)cc1` [Compound 29, (Z)-4-(3-ethyl-4-(3-methoxyphenyl)thiazol-2(3H)-ylideneamino)benzenesulfonic acid], the 50% effective concentration (EC50) (read-out: EC50 Range) lay within 250 to 500 nM.
Turning to `CCc1ccc(-c2cn(-c3cc(C(=O)O)ccc3F)nn2)cc1` [Compound 70, 3-(4-(4-ethylphenyl)-1H-1,2,3-triazol-1-yl)-4-fluorobenzoic acid], under “read-out: EC50 Range”, the EC50 lay in the range of 1000 to 5000 nM.
For the compound `COc1ccc(-n2cc(-c3cccc(C(=O)O)c3)nn2)cc1` [Compound 54, 3-(1-(4-methoxyphenyl)-1H-1,2,3-triazol-4-yl)benzoic acid], the Emax was 68.9%. The EC50 (read-out: EC50) was 1400 nM. In addition, for the setting “read-out: EC50 Range”, the 50% effective concentration (EC50) was 1000 to 5000 nM.
Turning to `CCn1c(-c2ccccc2)cs/c1=N\c1ccc(C(=O)O)cc1` [Compound 36, (Z)-4-(3-ethyl-4-phenylthiazol-2(3H)-ylideneamino)benzoic acid], the EC50 (read-out: EC50 Range) was 250 to 500 nM.
As for `O=C(O)c1cccc(-n2cc(-c3ccccc3F)nn2)c1` [Compound 60, 3-(4-(2-fluorophenyl)-1H-1,2,3-triazol-1-yl)benzoic acid], under “read-out: EC50 Range”, the EC50 fell in the range of 1000 to 5000 nM.
Still for that read-out and setting: the result for `CCn1c(-c2ccc3ccccc3c2)cs/c1=N\c1ccc(C(=O)O)cc1` [Compound 41, (Z)-4-(3-ethyl-4-(naphthalen-2-yl)thiazol-2(3H)-ylideneamino)benzoic acid] reads 250 to 500 nM; that for `CCn1c(-c2cccc(OC)c2)cs/c1=N\c1ccc(C(=O)O)cc1` [Compound 33, (Z)-4-(3-ethyl-4-(3-methoxyphenyl)thiazol-2(3H)-ylideneamino)benzoic acid], 500 to 1000 nM.
Regarding `CCn1c(-c2ccccc2NC)cs/c1=N\c1ccc(C(=O)O)cc1` [Compound 45, (Z)-4-(3-ethyl-4-(2-(methylamino)phenyl)thiazol-2(3H)-ylideneamino)benzoic acid], the Emax turned out to be 87.9%. Also, the EC50 (read-out: EC50) came out at 526 nM. Further, the EC50 (read-out: EC50 Range) is 500 to 1000 nM.
For `CCn1c(-c2ccccc2)cs/c1=N\c1c(F)c(F)c(C(=O)O)c(F)c1F` [Compound 25, (Z)-4-(3-ethyl-4-phenylthiazol-2(3H)-ylideneamino)-2,3,5,6-tetrafluorobenzoic acid], where the note is “read-out: EC50 Range”, the EC50 lay in the range of 250 to 500 nM.
For the compound `CCc1ccc(-c2cn(-c3cccc(C(=O)O)c3)nn2)cc1` [Compound 61, 3-(4-(4-ethylphenyl)-1H-1,2,3-triazol-1-yl)benzoic acid], the EC50 (read-out: EC50 Range) lay within 500 to 1000 nM.
For `CCCn1c(-c2ccccc2)cs/c1=N\c1ccc(C(=O)O)cc1` [Compound 16, (Z)-4-(4-phenyl-3-propylthiazol-2(3H)-ylideneamino)benzoic acid], the Emax came out at 96.9%. Where the note is “read-out: EC50”, the EC50 is 479 nM. The EC50 (read-out: EC50 Range) lay in the range of 250 to 500 nM.
Take `CCn1c(-c2cccc(C#N)c2)cs/c1=N\c1ccc(S(=O)(=O)O)cc1` [Compound 1, (Z)-4-(4-(3-cyanophenyl)-3-ethylthiazol-2(3H)-ylideneamino)benzenesulfonic acid]: the EC50 (read-out: EC50 Range) is 500 to 1000 nM.
On the same count and under the same terms, the result for `CCC(C)n1c(-c2ccccc2)cs/c1=N\c1ccc(C(=O)O)cc1` (stereo not shown) [Compound 22, (Z)-4-(3-sec-butyl-4-phenylthiazol-2(3H)-ylideneamino)benzoic acid] reads 500 to 1000 nM.
As for `CCc1ccc(-c2cn(-c3ccc(F)c(C(=O)O)c3)nn2)cc1` [Compound 69, 5-(4-(4-ethylphenyl)-1H-1,2,3-triazol-1-yl)-2-fluorobenzoic acid], the EC50 (read-out: EC50 Range) lay within 1000 to 5000 nM.
Still for that read-out and setting: then `CCc1ccc(-c2cn(-c3cc(OC)cc(C(=O)O)c3)nn2)cc1` [Compound 65, 3-(4-(4-ethylphenyl)-1H-1,2,3-triazol-1-yl)-5-methoxybenzoic acid], with 1000 to 5000 nM.
For the compound `O=C(O)c1ccc(/N=c2\scc(-c3ccccc3)n2CC(F)(F)F)cc1` [Compound 24, (Z)-4-(4-phenyl-3-(2,2,2-trifluoroethyl)thiazol-2(3H)-ylideneamino)benzoic acid], the Emax was 71.2%. Moreover, where the note is “read-out: EC50”, the EC50 turned out to be 184 nM. Further, the EC50 (read-out: EC50 Range) was in the range of 100 to 250 nM.
On to `CCn1c(-c2ccccc2)cs/c1=N\c1ccc(C(=O)O)c(Br)c1` [Compound 15, (Z)-2-bromo-4-(3-ethyl-4-phenylthiazol-2(3H)-ylideneamino)benzoic acid], for which, under “read-out: EC50 Range”, the EC50 lay in the range of 100 to 250 nM.
On to `CCn1c(-c2cccc(O)c2)cs/c1=N\c1ccc(C(=O)O)cc1` [Compound 18, (Z)-4-(3-ethyl-4-(3-hydroxyphenyl)thiazol-2(3H)-ylideneamino)benzoic acid], for which the EC50 (read-out: EC50 Range) was in the range of 250 to 500 nM.
